The text below walks through data of ChEMBL document CHEMBL5241118, “4-Aminopyrazolopyrimidine scaffold and its deformation in the design of tyrosine and serine/threonine kinase inhibitors in medicinal chemistry” (RSC Med Chem, 2022).

One assay relates to HBL. The assay can be described thus: Antiproliferative activity against human HBL cells assessed as inhibition of cell growth. It is filed as functional.
Assay [1] relates to MDA-MB-231. The assay can be described thus: Antitumor activity against human MDA-MB-231 cells xenografted in athymic nude mouse assessed as the inhibition of tumor growth at 25 mg/kg, ip administered twice daily for 14 days relative to control. It is filed as functional. The following applies: MDA-MB-231, 336 h, time 14 day, read-out: TGI.
Assay [2] deals with MDA-MB-231. The assay can be described thus: Antitumor activity against human MDA-MB-231 cells xenografted in athymic nude mouse assessed as the inhibition of tumor growth at 65 mg/kg, ip measured at 24 hrs post-dose relative to control. The following applies: MDA-MB-231, 24 h, read-out: TGI. On the technique in general: In xenograft studies the graft and the host belong to different species.

The target of assay [3] is T1, Proto-oncogene tyrosine-protein kinase Src (Homo sapiens, UniProt P12931). The assay can be described thus: Inhibition of Src kinase (unknown origin) phosphorylation at Tyr416/419 residues incubated for 24 hrs by Western blot analysis.
Target sequence in this assay (P12931 2-536 limits assumed): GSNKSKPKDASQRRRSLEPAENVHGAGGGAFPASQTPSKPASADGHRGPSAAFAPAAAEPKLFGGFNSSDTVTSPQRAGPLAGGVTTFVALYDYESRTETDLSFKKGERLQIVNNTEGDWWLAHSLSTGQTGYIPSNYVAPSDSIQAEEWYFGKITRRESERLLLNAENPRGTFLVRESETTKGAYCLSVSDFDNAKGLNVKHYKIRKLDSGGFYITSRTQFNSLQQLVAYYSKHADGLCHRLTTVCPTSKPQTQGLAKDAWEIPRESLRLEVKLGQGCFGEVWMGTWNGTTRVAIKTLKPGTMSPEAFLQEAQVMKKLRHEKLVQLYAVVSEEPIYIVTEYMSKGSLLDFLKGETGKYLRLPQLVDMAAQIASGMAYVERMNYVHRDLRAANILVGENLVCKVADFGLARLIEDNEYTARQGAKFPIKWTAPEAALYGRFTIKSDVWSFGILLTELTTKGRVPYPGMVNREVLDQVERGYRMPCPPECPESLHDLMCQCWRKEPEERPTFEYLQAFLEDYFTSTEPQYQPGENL
Assay [4] addresses T2, Tyrosine-protein kinase Lck (Homo sapiens, UniProt P06239). The assay can be described thus: Inhibition of His-tagged LCK (62 to 509 residues) (unknown origin) expressed in Sf9 insect cells at 10 uM using poly (Glu, Tyr) 4:1 as substrate incubated for 1 hr by spectrometric analysis.
The target of assay [5] is Tyrosine-protein kinase Lyn (Homo sapiens, UniProt P07948). The assay can be described thus: Inhibition of LYN (unknown origin).
Assay [6] deals with Phosphatidylinositol 4,5-bisphosphate 3-kinase catalytic subunit gamma isoform (Homo sapiens, UniProt P48736). The assay can be described thus: Binding affinity to PI3Kgamma (unknown origin) assessed as dissociation constant.
For assay [7], the target named is Phosphatidylinositol 4,5-bisphosphate 3-kinase catalytic subunit beta isoform (Homo sapiens, UniProt P42338). The assay can be described thus: Binding affinity to PI3Kbeta (unknown origin) assessed as dissociation constant.
The target of assay [8] is Phosphatidylinositol 4,5-bisphosphate 3-kinase catalytic subunit alpha isoform (Homo sapiens, UniProt P42336). The assay can be described thus: Binding affinity to PI3Kalpha (unknown origin) assessed as dissociation constant.
The target of assay [9] is T1, Proto-oncogene tyrosine-protein kinase Src. The assay can be described thus: Binding affinity to c-Src (unknown origin) assessed as inhibition constant.
Target sequence in this assay (P12931 whole entry, looked up, the tested form may be a part): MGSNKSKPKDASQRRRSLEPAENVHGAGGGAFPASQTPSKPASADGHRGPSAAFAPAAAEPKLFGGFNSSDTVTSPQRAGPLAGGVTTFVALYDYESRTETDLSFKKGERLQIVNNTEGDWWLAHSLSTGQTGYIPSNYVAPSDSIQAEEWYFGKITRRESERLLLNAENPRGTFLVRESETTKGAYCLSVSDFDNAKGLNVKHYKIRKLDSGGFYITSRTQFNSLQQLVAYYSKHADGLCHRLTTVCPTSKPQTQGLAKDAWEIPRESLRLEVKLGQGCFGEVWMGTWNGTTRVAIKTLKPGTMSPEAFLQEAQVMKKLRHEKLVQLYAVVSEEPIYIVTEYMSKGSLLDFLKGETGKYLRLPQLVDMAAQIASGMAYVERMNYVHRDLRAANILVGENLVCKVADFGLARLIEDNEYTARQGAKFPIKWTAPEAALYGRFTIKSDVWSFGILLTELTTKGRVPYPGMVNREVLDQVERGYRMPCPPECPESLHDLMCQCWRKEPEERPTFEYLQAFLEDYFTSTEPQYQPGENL
The target in assay [10] is Tyrosine-protein kinase Yes (Homo sapiens, UniProt P07947). The assay can be described thus: Binding affinity to YES (unknown origin) assessed as dissociation constant.
For assay [11], the target named is Tyrosine-protein kinase Fgr (Homo sapiens, UniProt P09769). The assay can be described thus: Binding affinity to FGR (unknown origin) assessed as dissociation constant.
In assay [12] the target is T2, Tyrosine-protein kinase Lck. The assay can be described thus: Binding affinity to LCK (unknown origin) assessed as dissociation constant.
The target in assay [13] is Epidermal growth factor receptor (Homo sapiens, UniProt P00533). The assay can be described thus: Inhibition of human recombinant His-tagged EGFR expressed in baculovirus using poly-Gluo-Tyr as a substrate measured after 24 hrs by western blot analysis.

Values joined by “and” are separate entries in the source; they are usually repeats but may differ in a detail not shown here. Identical values can stand only once. Bounds are passed on as bounds.

T2 sequence (P06239 whole entry, the tested form may be a part): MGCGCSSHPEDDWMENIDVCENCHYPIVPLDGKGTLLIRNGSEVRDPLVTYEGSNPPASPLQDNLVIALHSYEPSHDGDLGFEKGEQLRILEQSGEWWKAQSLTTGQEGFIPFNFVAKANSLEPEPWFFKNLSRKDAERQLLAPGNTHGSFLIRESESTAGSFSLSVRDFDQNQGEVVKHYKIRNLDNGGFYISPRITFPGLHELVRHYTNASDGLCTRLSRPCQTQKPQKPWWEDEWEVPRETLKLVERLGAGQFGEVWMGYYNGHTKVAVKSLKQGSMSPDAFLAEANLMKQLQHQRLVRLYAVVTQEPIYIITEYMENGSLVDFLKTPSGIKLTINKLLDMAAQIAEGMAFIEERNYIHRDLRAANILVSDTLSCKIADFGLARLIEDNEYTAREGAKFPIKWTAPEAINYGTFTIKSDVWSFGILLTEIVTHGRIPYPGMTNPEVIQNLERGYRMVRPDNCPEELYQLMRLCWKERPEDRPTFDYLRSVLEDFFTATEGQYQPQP
Epidermal growth factor receptor, sequence (P00533 whole entry): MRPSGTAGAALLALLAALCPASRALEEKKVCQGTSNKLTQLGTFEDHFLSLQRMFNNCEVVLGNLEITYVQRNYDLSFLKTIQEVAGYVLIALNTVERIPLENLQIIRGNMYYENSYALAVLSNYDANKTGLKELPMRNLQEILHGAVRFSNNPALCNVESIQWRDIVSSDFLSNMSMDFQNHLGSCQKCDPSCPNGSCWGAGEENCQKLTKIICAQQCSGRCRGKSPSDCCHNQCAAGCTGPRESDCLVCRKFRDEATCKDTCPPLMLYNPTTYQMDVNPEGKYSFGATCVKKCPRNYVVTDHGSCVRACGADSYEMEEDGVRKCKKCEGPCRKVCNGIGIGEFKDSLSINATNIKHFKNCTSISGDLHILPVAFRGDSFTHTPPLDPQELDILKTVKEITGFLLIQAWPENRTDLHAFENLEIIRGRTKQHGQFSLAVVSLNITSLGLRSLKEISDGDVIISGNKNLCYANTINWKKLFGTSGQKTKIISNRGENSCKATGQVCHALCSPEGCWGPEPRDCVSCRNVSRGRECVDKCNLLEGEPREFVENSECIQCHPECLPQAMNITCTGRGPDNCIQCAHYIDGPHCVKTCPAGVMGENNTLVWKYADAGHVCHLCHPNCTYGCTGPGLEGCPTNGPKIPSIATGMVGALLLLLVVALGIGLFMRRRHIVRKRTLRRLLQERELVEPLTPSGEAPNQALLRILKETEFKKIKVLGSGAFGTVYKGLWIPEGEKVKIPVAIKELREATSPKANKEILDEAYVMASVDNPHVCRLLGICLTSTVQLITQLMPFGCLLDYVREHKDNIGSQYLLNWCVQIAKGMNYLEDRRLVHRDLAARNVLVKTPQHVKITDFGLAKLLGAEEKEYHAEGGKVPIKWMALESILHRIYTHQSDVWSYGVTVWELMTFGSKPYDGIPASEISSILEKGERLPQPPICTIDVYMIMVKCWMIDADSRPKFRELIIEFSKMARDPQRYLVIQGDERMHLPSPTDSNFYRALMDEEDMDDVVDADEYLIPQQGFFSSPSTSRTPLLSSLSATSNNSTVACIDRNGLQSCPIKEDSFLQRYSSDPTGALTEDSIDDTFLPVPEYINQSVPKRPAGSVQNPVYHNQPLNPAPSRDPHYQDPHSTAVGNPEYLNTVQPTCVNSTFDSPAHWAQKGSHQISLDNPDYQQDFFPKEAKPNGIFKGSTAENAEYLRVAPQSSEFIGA
Phosphatidylinositol 4,5-bisphosphate 3-kinase catalytic subunit alpha isoform, sequence (P42336 whole entry, canonical isoform): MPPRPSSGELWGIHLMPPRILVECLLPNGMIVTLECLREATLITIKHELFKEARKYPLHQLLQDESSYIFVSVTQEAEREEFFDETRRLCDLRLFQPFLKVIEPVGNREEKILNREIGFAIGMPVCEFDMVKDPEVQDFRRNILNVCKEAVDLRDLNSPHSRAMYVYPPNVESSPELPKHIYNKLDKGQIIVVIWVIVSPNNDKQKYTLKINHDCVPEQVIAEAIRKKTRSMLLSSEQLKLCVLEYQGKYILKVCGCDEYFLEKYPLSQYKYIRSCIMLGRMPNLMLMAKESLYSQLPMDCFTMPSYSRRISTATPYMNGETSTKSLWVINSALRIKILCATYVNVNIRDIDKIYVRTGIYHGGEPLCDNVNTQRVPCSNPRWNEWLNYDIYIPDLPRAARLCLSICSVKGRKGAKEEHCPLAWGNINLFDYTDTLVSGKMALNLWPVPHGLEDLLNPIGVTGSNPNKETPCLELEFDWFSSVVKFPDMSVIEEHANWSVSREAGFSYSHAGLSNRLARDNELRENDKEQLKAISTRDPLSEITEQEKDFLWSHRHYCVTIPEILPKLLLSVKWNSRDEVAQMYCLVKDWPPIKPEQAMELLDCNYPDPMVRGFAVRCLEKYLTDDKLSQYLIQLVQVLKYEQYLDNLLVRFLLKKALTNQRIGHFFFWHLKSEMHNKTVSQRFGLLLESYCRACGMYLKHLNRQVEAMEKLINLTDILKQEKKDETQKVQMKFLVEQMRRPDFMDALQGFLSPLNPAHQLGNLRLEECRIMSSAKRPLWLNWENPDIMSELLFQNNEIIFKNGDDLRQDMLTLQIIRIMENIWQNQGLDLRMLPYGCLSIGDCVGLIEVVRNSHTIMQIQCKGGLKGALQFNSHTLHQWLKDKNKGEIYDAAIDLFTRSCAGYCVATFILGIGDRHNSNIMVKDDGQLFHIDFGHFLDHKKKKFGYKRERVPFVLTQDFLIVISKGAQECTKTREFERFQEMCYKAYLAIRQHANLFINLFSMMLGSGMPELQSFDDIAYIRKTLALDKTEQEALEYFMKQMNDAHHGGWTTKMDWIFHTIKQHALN
Phosphatidylinositol 4,5-bisphosphate 3-kinase catalytic subunit gamma isoform, sequence (P48736 whole entry, canonical isoform): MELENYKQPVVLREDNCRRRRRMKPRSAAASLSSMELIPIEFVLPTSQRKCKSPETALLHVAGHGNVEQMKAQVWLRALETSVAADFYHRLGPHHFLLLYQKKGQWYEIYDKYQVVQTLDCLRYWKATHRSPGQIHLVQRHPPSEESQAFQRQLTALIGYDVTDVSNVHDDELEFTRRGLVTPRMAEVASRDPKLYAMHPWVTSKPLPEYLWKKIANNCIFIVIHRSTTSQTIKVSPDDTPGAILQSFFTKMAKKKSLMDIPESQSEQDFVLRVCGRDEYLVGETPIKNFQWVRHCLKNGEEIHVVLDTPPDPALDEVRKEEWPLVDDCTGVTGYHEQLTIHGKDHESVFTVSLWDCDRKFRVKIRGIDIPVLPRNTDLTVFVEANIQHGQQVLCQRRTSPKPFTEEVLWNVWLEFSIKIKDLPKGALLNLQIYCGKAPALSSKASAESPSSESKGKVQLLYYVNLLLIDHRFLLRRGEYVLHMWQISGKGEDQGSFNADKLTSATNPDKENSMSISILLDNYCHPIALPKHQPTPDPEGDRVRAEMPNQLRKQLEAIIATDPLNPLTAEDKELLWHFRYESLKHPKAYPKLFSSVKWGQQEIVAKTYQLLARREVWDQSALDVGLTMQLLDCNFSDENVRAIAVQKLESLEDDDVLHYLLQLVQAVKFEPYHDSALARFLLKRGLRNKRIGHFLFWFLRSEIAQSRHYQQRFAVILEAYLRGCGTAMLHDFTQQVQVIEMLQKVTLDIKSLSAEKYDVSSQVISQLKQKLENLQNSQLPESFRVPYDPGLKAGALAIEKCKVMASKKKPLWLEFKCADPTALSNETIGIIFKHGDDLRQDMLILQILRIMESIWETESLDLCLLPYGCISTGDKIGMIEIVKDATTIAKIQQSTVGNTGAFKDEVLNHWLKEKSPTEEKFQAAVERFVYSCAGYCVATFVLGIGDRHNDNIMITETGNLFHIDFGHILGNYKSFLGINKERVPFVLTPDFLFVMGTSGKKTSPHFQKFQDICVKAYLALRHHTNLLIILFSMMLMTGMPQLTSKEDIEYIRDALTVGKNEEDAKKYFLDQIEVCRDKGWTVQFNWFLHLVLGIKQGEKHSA

As to `Nc1ncnc2c1c(-c1ccc(Oc3ccccc3)cc1)nn2[C@@H]1CCCN(C(=O)c2cn(CCOCCOCCOCCNc3cccc4c3C(=O)N(C3CCC(=O)NC3=O)C4=O)nn2)C1` (some centres undefined), in the assay with HBL, the 50% growth inhibitory concentration (GI50) was 28 nM.

`COc1cccc2cc(-c3nc([C@H]4CC[C@H](C(=O)O)CC4)n4ncnc(N)c34)[nH]c12` [OSI-027]: the inhibition in vivo at 25 mg/kg with MDA-MB-231 [1] amounted to 90%. For the same compound, the inhibition in vivo at 65 mg/kg in the assay on MDA-MB-231 [2] was determined as 100%.

As for `CN1CCN([C@H]2CC[C@H](n3cc(-c4ccc(Oc5ccccc5)cc4)c4c(N)ncnc43)CC2)CC1`, the half-maximal inhibitory concentration (IC50) was 9 nM in [3], < 3 nM in [4] and < 3 nM in assay [5].

In the case of `CC(C)Oc1ccc(-c2nn([C@H](C)c3oc4ccc(F)cc4c(=O)c3-c3cccc(F)c3)c3ncnc(N)c23)cc1F`, the Kd in assay [6] was > 1400 nM; in assay [7], > 10000 nM; in [8], > 10000 nM.

With `Nc1ncnc2c1c(-c1ccc(Cl)cc1)nn2-c1cccc(-c2cnnn2Cc2cccc(-c3ccccc3)c2)c1`, the Ki in [9] came out at 44 nM. The Kd in [10] is 720 nM; in [11], 240 nM; in [12] it was 86 nM and 160 nM.

In the case of `COc1cccc(-c2cn(-c3ccc(CCN4CCC(O)CC4)cc3)c3ncnc(N)c23)c1`, the 50% inhibitory concentration (IC50) in assay [13] came to 150 nM.

As usually defined, the GI50 is the concentration that inhibits growth by half. As usually defined, the IC50 is the concentration that inhibits the measured activity by half. Usually Kd stands for the free concentration of one partner at which half of the binding sites on the other are occupied at equilibrium, for simple one-to-one binding. Broadly, the Ki is a measure of affinity in units of concentration, obtained from inhibition or displacement.
